# Measured values as given in PMC9190144, “Phytochemistry, anti-diabetic and antioxidant potentials of Allium consanguineum Kunth” (BMC Complementary Medicine and Therapies, 2022).
# Values joined by “and” are separate entries in the source; they are usually repeats but may differ in a detail not shown here. Equal values may be shown once.
# Experiments:
# α-glucosidase = α-glucosidase (Saccharomyces cerevisiae, UniProt P53341); format: biochemical
# Protocol: For the example planning initial 1200 μL of phosphate buffer put in test tube and included 100 μl of each concentrate which sequential weakened going from 9, 7, and 5 mg/ml. 200 μl of glycosidase (0.5 mg/11 ml refined H2O) was added to the test tube in addition to 0.2 ml of substrate arrangement (glucopyranoside 15 mg/10 ml refined water) was kept at 37 °C for 20 minutes.
# For control, 1.2 ml of PO4 (phosphate buffer) was added to the test tube and furthermore included 200 μl catalyst arrangement and 200 μl of substrate arrangement (C7H14O6 (glucopyranoside) 15 mg/10 ml refined water) just as included 800 μl of Na2CO3 arrangement and was maintained for 20 minutes at 37 °C [32]. The retention of control and test was examined at 4.05e-7 m using the accompanying equation after the recommended time: %Inhibition=absorbanceofControl-absorbanceofSample/absorbanceofControl×100
# (§1) The IC50s were determined using the same approach in free radical assays such as DPPH, ABTS, and H2O2.
# α-amylase = test: In-vitro α-amylase inhibition assay; format: biochemical; settings: for Percent Inhibition (mean ± SEM): crude extract/solvent fractions series; for Alpha amylase Percent Inhibition (mean ± SEM): semi-purified fractions/isolated compounds series
# Protocol: The Bernfeld’s procedure was used to investigate in-vitro amylase inhibition. […] Ten minutes after incubation period, […] of 1% starch solution were applied to initiate the reaction and then incubated for 30 minutes at 37 °C. Then 20 μl of 1 M HCl and 75 μl of iodine solution were added to the 96 well plate, the absorbance of the solution was measured at 580 nm and inhibitory response of the -amylase enzyme was calculated using the following formula. Inhibition%=100control-test/control
# as §1
# DPPH antioxidant assay = format: biochemical; settings: for DPPH Percent Scavenging / Percent Inhibition (mean ± SEM): semi-purified fractions/isolated compounds series
# Protocol: For DPPH stock arrangement, […] dissolve in 100 ml of methanol and maintain at 20 °C for supplementary action. After this, 1000 micro litter was the standard absorbance set at 517 nm as utilized a control and afterward spread through aluminum foil for keeping in dark area for 1 day for the formation of radicals. […] The 2 ml solution of the examples were blended in with 2 ml of 2, 2-[…]-1-picryl-hydrazyl radical arrangement and saved for 15 m in obscurity zone. Following equation was utilized for the assurance of % DPPH restraint. %inhibition=A-B/A×100
# A for absorbance of control and B are denoted for the absorbance of sample.
# as §1
# [1] = tested on: alloxan-induced diabetic albino mice; test: In-vivo anti-diabetic study in alloxan-induced diabetic mice; settings: for Decrease in Blood Glucose: 0 day to 15th day
# Protocol: The diabetes was induced in mice by giving alloxan i.p. as per the standard protocols. A single dose of alloxan (150 mg/kg) was given to mice and were kept on fasting for next 16 hours to induce diabetes. […] The animals with random blood glucose level of more than 200 mg/dl were selected for further studies. The animals with elevated blood glucose levels were divided into six groups having five albino mice in each group. Group I was given normal saline and was negative control. Group II was given Tween 80. Group III was the positive control and was given glibenclamide. The remaining groups were given different doses of the compounds. […]
# albino mice = test: Oral glucose tolerance test (OGTT); format: in vivo; settings: for OGTT 0 minutes / OGTT 30 minutes / OGTT 60 minutes / OGTT 120 minutes: oral; for OGTT 0 minutes: 0 minutes after glucose; for OGTT 30 minutes: 30 minutes after glucose; for OGTT 60 minutes: 60 minutes after glucose; for OGTT 120 minutes: 120 minutes after glucose
# Protocol: In this experiment, the animals treated with control and treated groups were fasted overnight. To the albino mice, […] of glucose was administered against the standard glibenclamide. After the oral administration of glucose, the level of glucose in blood was checked at time intervals of 0, 30, 60 and 120 minutes for assessment of the effect of exogenously administered glucose-D on the treated albino mice. After the experiment, the OGTT was carried out for 5 days.
# [2] = ABTS free radicals scavenging assay; format: biochemical
# Protocol: The ABTS analysis of plant’s samples was performed by standard systems. […] After amassing of the two solutions, they were saved in a hatchery at 30 °C for 15 m. The absorbance of the subsequent solution was estimated at 745 nm with photo-spectrometer again. Various weakening of ascorbic corrosive was then set up as certain controls as per a similar technique. The ABTS free extreme screening was examined by the accompanying recipe. Formula: %scavengingactivity=A-B/AX100 A used for the control while B represents sample absorbance.
# [3] = H2O2 free radicals scavenging assay; format: biochemical
# Protocol: The hydrogen peroxide antioxidant activity of test samples was evaluated by using protocol described. […] It was […] 0.6 mL hydrogen peroxide solution was applied to it. The absorbance of each plant sample was measured at 230 nm against the blank after 10 minutes. […] Hydrogenperoxidescavengingactivity=1-[…]×100 […]
# [4] = dose 31.25 μg/kg, diabetic mice
# [5] = dose 0.5 (μg/kg), diabetic mice
# Chain of α-glucosidase (P53341 whole entry): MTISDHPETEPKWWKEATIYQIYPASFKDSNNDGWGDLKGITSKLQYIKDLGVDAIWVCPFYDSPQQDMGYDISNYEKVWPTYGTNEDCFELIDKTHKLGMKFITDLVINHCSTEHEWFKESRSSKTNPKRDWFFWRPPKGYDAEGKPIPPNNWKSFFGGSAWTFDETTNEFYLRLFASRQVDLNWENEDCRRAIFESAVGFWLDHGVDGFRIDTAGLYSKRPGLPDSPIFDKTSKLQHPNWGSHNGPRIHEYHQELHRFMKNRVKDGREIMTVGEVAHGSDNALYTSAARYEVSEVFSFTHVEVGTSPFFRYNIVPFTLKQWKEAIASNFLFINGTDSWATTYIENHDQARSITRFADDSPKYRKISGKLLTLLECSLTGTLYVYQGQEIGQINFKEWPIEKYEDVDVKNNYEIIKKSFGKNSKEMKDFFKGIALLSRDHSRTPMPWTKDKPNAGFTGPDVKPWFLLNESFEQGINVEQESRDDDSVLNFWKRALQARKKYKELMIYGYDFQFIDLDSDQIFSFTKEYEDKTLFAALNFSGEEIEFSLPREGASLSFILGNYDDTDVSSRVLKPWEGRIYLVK
Structure (SMILES),Alpha amylase Percent Inhibition (mean ± SEM) (α-amylase; 250 μg/ml),Alpha amylase Percent Inhibition (mean ± SEM) (α-amylase; 500 μg/ml),Alpha amylase Percent Inhibition (mean ± SEM) (α-amylase; 1000 μg/ml),DPPH Percent Scavenging / Percent Inhibition (mean ± SEM) (DPPH antioxidant assay; 250 μg/ml) [%],DPPH Percent Scavenging / Percent Inhibition (mean ± SEM) (DPPH antioxidant assay; 500 μg/ml) [%],DPPH Percent Scavenging / Percent Inhibition (mean ± SEM) (DPPH antioxidant assay; 1000 μg/ml) [%],Decrease in Blood Glucose ([1]; dose 31.25 μg/kg) [mg/dL],"Blood Glucose Level 0 day [1, 4] [mg/dL]","Blood Glucose Level 4th day [1, 4] [mg/dL]","Blood Glucose Level 7th day [1, 4] [mg/dL]","Blood Glucose Level 10th day [1, 4] [mg/dL]","Blood Glucose Level 15th day [1, 4] [mg/dL]",Decrease in Blood Glucose ([1]; dose 250 μg/kg) [mg/dL],"Blood Glucose Level 0 day ([1]; dose 250 μg/kg, diabetic mice) [mg/dL]","Blood Glucose Level 4th day ([1]; dose 250 μg/kg, diabetic mice) [mg/dL]","Blood Glucose Level 7th day ([1]; dose 250 μg/kg, diabetic mice) [mg/dL]",OGTT 0 minutes (albino mice) [mg/dL],OGTT 30 minutes (albino mice) [mg/dL],OGTT 60 minutes (albino mice) [mg/dL],OGTT 120 minutes (albino mice) [mg/dL],other results
C[C@H]1O[C@H](O[C@H]2[C@H](O)[C@@H](O)[C@@H](O[C@H]3[C@H](O)[C@@H](O)C(O)O[C@@H]3CO)O[C@@H]2CO)[C@H](O)[C@@H](O)[C@@H]1N[C@H]1C=C(CO)[C@@H](O)[C@H](O)[C@H]1O (stereo partly shown) [Acarbose],77.08 ± 1.04%,82.28 ± 1.94%,87.49 ± 0.60%,–,–,–,–,–,–,–,–,–,–,–,–,–,–,–,–,–,Alpha glucosidase Percent Inhibition (mean ± SEM) (α-glucosidase): 89.50 ± 1.00% and 83.00 ± 0.00% and 77.50 ± 0.57% and 73.53 ± 0.55% and 67.63 ± 0.33%; Percent Inhibition (mean ± SEM) (α-glucosidase): 75.50 ± 1.00% and 70.00 ± 0.00% and 64.50 ± 0.57% and 56.53 ± 0.55% and 51.63 ± 0.33%; Percent Inhibition (mean ± SEM) (α-amylase; 250 μg/ml): 70.08 ± 1.04%; Percent Inhibition (mean ± SEM) (α-amylase; 500 μg/ml): 76.28 ± 1.94%; Percent Inhibition (mean ± SEM) (α-amylase; 1000 μg/ml): 87.49 ± 0.60%
"C=CCc1cc2c(c(OC)c1OC)OCO2 [Comp 2, 6-allyl-4,5-dimethoxybenzo[d][1,3]dioxole]",68.33 ± 0.49 %,74.33 ± 1.20 %,81.61 ± 1.70 %,78.36 ± 0.84,82.35 ± 0.23,87.62 ± 0.58,33,451,447,430,424,418,112,467,462,444,163.5,189.4,214.6,151.6,"Change in body weight [1, 4]: −6.6 gm; Blood Glucose Level 10th day ([1]; dose 250 μg/kg, diabetic mice): 408 mg/dL; Blood Glucose Level 15th day ([1]; dose 250 μg/kg, diabetic mice): 355 mg/dL; Decrease in Blood Glucose ([1]; dose 500 μg/kg): 201 mg/dL; Blood Glucose Level 0 day ([1]; dose 500 μg/kg, diabetic mice): 457 mg/dL; Blood Glucose Level 4th day ([1]; dose 500 μg/kg, diabetic mice): 403 mg/dL; Blood Glucose Level 7th day ([1]; dose 500 μg/kg, diabetic mice): 362 mg/dL; Blood Glucose Level 10th day ([1]; dose 500 μg/kg, diabetic mice): 304 mg/dL; Blood Glucose Level 15th day ([1]; dose 500 μg/kg, diabetic mice): 256 mg/dL"
O=C1O[C@H]([C@@H](O)CO)C(O)=C1O [Ascorbic acid],–,–,–,83.33 ± 0.88,87.84 ± 0.26,92.55 ± 0.35,–,–,–,–,–,–,–,–,–,–,–,–,–,–,"DPPH assay Percent Inhibition (mean ± SEM) (DPPH antioxidant assay; 250 μg/ml, crude extract/solvent fractions series): 81.33 ± 0.88%; DPPH assay Percent Inhibition (mean ± SEM) (DPPH antioxidant assay; 500 μg/ml, crude extract/solvent fractions series): 87.84 ± 0.26%; DPPH assay Percent Inhibition (mean ± SEM) (DPPH antioxidant assay; 1000 μg/ml, crude extract/solvent fractions series): 92.55 ± 0.35%; DPPH assay IC50 (DPPH antioxidant assay; crude extract/solvent fractions series): < 0.1 µg/mL; ABTS assay IC50 [2]: < 0.1 µg/mL; ABTS assay Percent Inhibition (mean ± SEM) ([2]; 250 μg/ml): 81.00 ± 1.06%; ABTS assay Percent Inhibition (mean ± SEM) ([2]; 500 μg/ml): 86.66 ± 0.66%; ABTS assay Percent Inhibition (mean ± SEM) ([2]; 1000 μg/ml): 87.83 ± 0.29%; H2O2 assay IC50 [3]: 12.63 µg/mL; H2O2 assay Percent Inhibition (mean ± SEM) ([3]; 250 μg/ml): 71.56 ± 0.49%; H2O2 assay Percent Inhibition (mean ± SEM) ([3]; 500 μg/ml): 74.03 ± 0.64%; H2O2 assay Percent Inhibition (mean ± SEM) ([3]; 1000 μg/ml): 82.43 ± 0.52%"
"COc1ccc(Cl)cc1C(=O)NCCc1ccc(S(=O)(=O)NC(=O)NC2CCCCC2)cc1 [Glibenclamide, reference compound]",–,–,–,–,–,–,–,–,–,–,–,–,–,–,–,–,151.3,176.5,214.1,140.7,"Decrease in Blood Glucose ([1]; dose 0.5 (μg/kg)): 274 mg/dL; Blood Glucose Level 0 day [1, 5]: 472 mg/dL; Blood Glucose Level 4th day [1, 5]: 302 mg/dL; Blood Glucose Level 7th day [1, 5]: 256 mg/dL; Blood Glucose Level 10th day [1, 5]: 211 mg/dL; Blood Glucose Level 15th day [1, 5]: 198 mg/dL"
"COc1cc(/C=C/CO)ccc1O [Comp 1, (E)-4-(3-hydroxyprop-1-en-1-yl)-2-methoxyphenol]",74.90 ± 0.60^ns %,79.45 ± 0.90^ns %,85.23 ± 0.22^ns %,80.48 ± 0.25,85.43 ± 1.39,89.24 ± 0.79,36,415,407,398,381,379,205,420,394,345,165.6,194.6,211.4,160.1,"Blood Glucose Level 10th day ([1]; dose 250 μg/kg, diabetic mice): 217 mg/dL; Blood Glucose Level 15th day ([1]; dose 250 μg/kg, diabetic mice): 215 mg/dL; Decrease in Blood Glucose ([1]; dose 500 μg/kg): 119 mg/dL; Blood Glucose Level 0 day ([1]; dose 500 μg/kg, diabetic mice): 411 mg/dL; Blood Glucose Level 4th day ([1]; dose 500 μg/kg, diabetic mice): 387 mg/dL; Blood Glucose Level 7th day ([1]; dose 500 μg/kg, diabetic mice): 371 mg/dL; Blood Glucose Level 10th day ([1]; dose 500 μg/kg, diabetic mice): 311 mg/dL; Blood Glucose Level 15th day ([1]; dose 500 μg/kg, diabetic mice): 292 mg/dL; blood glucose (albino mice; after 120 minutes): 160 mg/dL"
